Laboratory results taken from article PMC3591448, “Profile of the GSK Published Protein Kinase Inhibitor Set Across ATP-Dependent and-Independent Luciferases: Implications for Reporter-Gene Assays” (PLoS ONE, 2013).
Like-named read-outs stand apart in the source and are kept apart here.

Columns and labels:
VEGFR2 = conditions: ref Harris, P.A., et al. 2005; read-out: PKI IC50 (µM), VEGFR2; cited from earlier work
[1] = target: firefly luciferase, Photinus pyralis (FLuc) (Photinus pyralis, UniProt P08659); assay: biochemical; assay type: biochemical; conditions: for FLuc Parameters Hill Coef: Hill equation fit of CRC; for Emax: response relative to PTC124 control inhibitor, negative = inhibition, read-out: FLuc Parameters Efficacy
Method: (§1) The bioluminescence outputs were measured by an EnVision reader (PerkinElmer, Wellesley, MA). Due to the relatively short luminescence duration of the RLuc assay, dispense time constants were set to match closely to the read time of the plate reader. As a result, each individual well was read with approximately the same time delay from reagent dispense to signal acquisition. See Table 1 for the 1536-well assay protocols.
(§2) Data from each assay was normalized plate-wise to corresponding intraplate controls as described previously, [17]. The same control data sets were also used for the calculation of Z′ factors from each assay. In all assays, wells containing DMSO were used as no-response controls. For the FLuc enzymatic assay, each compound-treated well on the plate was normalized to the average readings of n = 24 PTC124 treated wells and n = 48 DMSO wells from the same plate. Wells were scaled to a full range of DMSO and zero, and then normalized using the maximum response observed in the screen as 100% activity. For the RLuc enzymatic assay, n = 24 BTS treated wells for the positive control, n = 48 DMSO. MSR values were calculated using the cumulative potency differences of the de-interleaved duplicate control titrations from each plate as previously described. The normalized data from each assay plate set was corrected using DMSO-only treated assay plates read at the start and end of each assay run, and the resulting inter-plate titration data fit, using in-house software, to the standard Hill equation and dose-response curves automatically classified as described previously.
(§3) The curve classification scheme for assignment of resulting curve-fit data into CRC classes was according to Inglese et al. as follows: class 1 curves (far left) display two asymptotes, an inflection point, and r^2≥0.9; subclasses 1a vs. 1b are differentiated by full (>80%) vs. partial (≤80%) response. Class 2 curves (second from left) display a single left-hand asymptote and inflection point; subclasses 2a (or 2.1) and 2b (2.2) are differentiated by a max response and r^2, >80% and >0.9 or <80% and <0.9, respectively. Class 3 curves (second from right) have a single left-hand asymptote, no inflection point, and a response >3SD from the mean activity of the sample field.

[2] = target: T1, Renilla luciferase (RLuc) (Renilla reniformis, UniProt P27652); assay: RLuc enzymatic assay (purified enzyme, qHTS, 1536-well); assay type: biochemical; conditions: 1 nM RLuc, 5 µM coelenterazine-H
T1 sequence (P27652 1-311): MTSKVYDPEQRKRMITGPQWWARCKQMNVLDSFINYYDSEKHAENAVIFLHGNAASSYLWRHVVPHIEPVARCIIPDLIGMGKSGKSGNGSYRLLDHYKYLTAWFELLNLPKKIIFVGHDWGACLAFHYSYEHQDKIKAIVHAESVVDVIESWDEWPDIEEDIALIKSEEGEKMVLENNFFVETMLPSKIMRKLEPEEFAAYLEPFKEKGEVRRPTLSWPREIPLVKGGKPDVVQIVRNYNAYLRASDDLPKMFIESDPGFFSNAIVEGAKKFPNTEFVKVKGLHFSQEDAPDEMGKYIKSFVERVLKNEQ
Method: as §1, with “1 µL of purified luciferase was then dispensed into each well for final concentrations 10 nM FLuc or 1 nM RLuc. The” for “The”
as §2, §3

CDK = test system: CDK; set-up: method as in Stevens, K. L., et al. 2008; conditions: ref Stevens, K. L., et al. 2008; read-out: PKI IC50 (µM), CDK; cited from earlier work
[3] = 10 nM FLuc, 10 µM D-luciferin, 10 µM ATP, read-out: FLuc Parameters IC50

Sequence of firefly luciferase, Photinus pyralis (FLuc) (P08659 whole entry): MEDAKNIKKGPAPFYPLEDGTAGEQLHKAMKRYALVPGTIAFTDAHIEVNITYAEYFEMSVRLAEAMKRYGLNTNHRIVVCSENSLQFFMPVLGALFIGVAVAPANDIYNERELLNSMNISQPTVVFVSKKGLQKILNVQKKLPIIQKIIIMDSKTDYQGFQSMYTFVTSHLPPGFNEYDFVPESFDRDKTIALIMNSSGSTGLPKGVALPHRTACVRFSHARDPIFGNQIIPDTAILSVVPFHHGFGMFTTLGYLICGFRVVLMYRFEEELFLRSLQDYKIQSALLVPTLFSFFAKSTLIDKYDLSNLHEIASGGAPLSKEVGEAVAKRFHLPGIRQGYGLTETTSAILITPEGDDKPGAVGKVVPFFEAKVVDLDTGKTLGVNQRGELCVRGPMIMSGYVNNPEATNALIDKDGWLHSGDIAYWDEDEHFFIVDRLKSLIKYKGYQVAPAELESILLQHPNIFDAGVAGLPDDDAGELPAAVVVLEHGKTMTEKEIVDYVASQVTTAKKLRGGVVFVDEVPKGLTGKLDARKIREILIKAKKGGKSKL

Structure (SMILES) | IC50 (VEGFR2) [µM] | IC50 [1, 3] [nM] | FLuc Parameters Hill Coef [1] | IC50 ([1]; Table 3, read-out: FLuc IC50) [nM] | Emax [1] [%] | RLuc Curve Class [2] | IC50 ([1]; Figure 2b, representative structures of clusters, read-out: FLuc IC50) [nM] | IC50 (CDK) [µM]
COc1ccccc1Nc1ncc(-c2ccccc2)o1 [GW577921A] | 0.38 | 1030 | 1 | 1030 | 102 | 4 | – | –
c1cc(-c2cnn3nc(N4CCOCC4)ccc23)nc(NC2CC2)n1 [GW708336X] | – | 4610 | 1 | 4610 | 108 | 4 | 5000 | 0.4
